What was measured:
CDK2 = CDK2 (Homo sapiens, UniProt P24941); assay: CDK2 substrate phosphorylation assay; type: biochemical
[1] = system: RKO colon adenocarcinoma cells; assay: FACS assay (cell death), RKO; type: cell-based; settings: Homo sapiens; 50% cell death, 72 h
Method: (§1) These assays allow determination of both cell death and changes in cell cycle profile in cells following treatment of the compound. The assay is performend as follows: • 1. Cells are incubated in DMEM to which 10% FCS has been added in a humidified incubator at 37° C. and 5% by volume of CO2 in air. The cells are innoculated in 6-well plates at a density of 0.5–5×10^5 cells per well. • 2. The test compound is added in serial dilutions 24–36 h after plating in 0.5% DMSO. The plates are then incubated a further 72 h in the presence of the compound. During this time, cells in control cultures undergo at least three cell divisions. • 3. After incubation, the media is collected and cells are harvested by trypsinization. The cells and media are pooled and pelleted by centrifugation. • 4. The cell pellet is fixed in a final volume of 3 mL of 50% ice cold MeOH and incubated for a minimum of 30 min at −20° C. • 5. The cells are pelleted by centrifugation and resuspended in 0.5 mL PBS containing 1%FCS, […] Propidium Iodide (PI) and […] RNase A and incubated 30 min at 37° C. in the dark. • 6. The samples are analysed by flow cytometry using the relative incorporation of PI as a measure of DNA content of each cell. The % Dead cells is recorded as % of events with less than 2N DNA. […] HDF are normal diploid fibroblast cells. […]

UL97 = target: T1, UL97 (Human cytomegalovirus, UniProt P16788); assay: UL97 protein kinase assay (32P transfer to histone H2B); type: biochemical
T1 construct: GST; made in house; host or cells: sf9 cells (baculovirus vector)
Method: UL97 was produced as a GST fusion protein from a baculovirus vector expressed in sf9 cells as described by He (He, et al., Journal of Virology 1997, 71, 405–11). UL97 was assayed as a protein kinase using ^32P transfer from ATP to histone H2B with detection of radiolabeled histone bound to phosphocellulose. Assay mixes for testing inhibitors of UL97 activity contained 2 mM [γ^32P]-ATP, 15 mM histone H2B, 50 mM sodiumCHES, pH 9.5, 1 M NaCl, 2 mM dithiothreitol and 10 mM MgCl2. Inhibitors were dissolved in diluted DMSO to give a final DMSO concentration in the reaction of 1% DMSO. After incubation at 20° C., the reactions were terminated by addition of 10 volumes of 75 mM phosphoric acid, 30 mM ATP, 1 mM EDTA, then were spotted onto phosphocellulose filters and washed four times with 75 mM phosphoric acid. Radioactivity was determined by liquid scintillation counting.

MES/SA cells = assay: FACS assay (cell death), MES/SA; type: cell-based; settings: Homo sapiens, 50% cell death, 72 h
Method: as §1

VEGFR-2 = VEGFR-2 (Homo sapiens, UniProt P35968); assay: VEGFR-2 kinase assay; type: biochemical; settings: read-out: VEGFR2 (IC50)
cSrc = cSrc (Homo sapiens, UniProt P12931); assay: Src kinase assay (ELISA or isotope format); type: biochemical
Method: The peptide substrates used in Src and Lck assays were biotin-aminohexyl-EEIYGEF-NH2 (Src) and biotin-aminohexyl-[…]-NH2 (Lck). The src and Ick proteins were purified to homogeneity from a baculovirus expression system and preactivated before adding to assay mixtures. The maximum activation was achieved by incubating concentrated enzyme ([…]) on ice for 40 min in the presence of 1 mM ATP and 10 mM MgCl2 in 100 mM HEPES, pH 7.5. The activated enzyme was diluted to 2 nM into a […] reaction mixture containing 100 mM HEPES, pH 7.5, 5 mM ATP, 10 mM MgCl2, 2 mM peptide, 0.05 mg/mL BSA, and an inhibitor at varying concentrations and with or without 8 mCi/mL [γ-^33P]ATP dependent upon the method of analysis for the extent of reaction. The controls were reactions in the presence (negative controls) or absence (positive controls) of 50 mM EDTA. Reactions were allowed to proceed for 30 min at room temperature and quenched with addition of EDTA to 50 mM in […]. The extent of reactions was analyzed in one of the two ways: an Elisa-based and a radioactive isotope-based. The quenched samples ([…]) were transferred to a neutravidin coated plate (Perice) and incubated at room temperature for 40 min to allow biotinylated peptide to bind to neutravidin. […] The plate was read at A625 in a plate reader. […] The plate was sealed and counted in a micro-b-counter (Wallac). […]

Lck = Lck (Homo sapiens, UniProt P06239); assay: Lck kinase assay (ELISA or isotope format); type: biochemical
Lck, sequence (P06239 whole entry): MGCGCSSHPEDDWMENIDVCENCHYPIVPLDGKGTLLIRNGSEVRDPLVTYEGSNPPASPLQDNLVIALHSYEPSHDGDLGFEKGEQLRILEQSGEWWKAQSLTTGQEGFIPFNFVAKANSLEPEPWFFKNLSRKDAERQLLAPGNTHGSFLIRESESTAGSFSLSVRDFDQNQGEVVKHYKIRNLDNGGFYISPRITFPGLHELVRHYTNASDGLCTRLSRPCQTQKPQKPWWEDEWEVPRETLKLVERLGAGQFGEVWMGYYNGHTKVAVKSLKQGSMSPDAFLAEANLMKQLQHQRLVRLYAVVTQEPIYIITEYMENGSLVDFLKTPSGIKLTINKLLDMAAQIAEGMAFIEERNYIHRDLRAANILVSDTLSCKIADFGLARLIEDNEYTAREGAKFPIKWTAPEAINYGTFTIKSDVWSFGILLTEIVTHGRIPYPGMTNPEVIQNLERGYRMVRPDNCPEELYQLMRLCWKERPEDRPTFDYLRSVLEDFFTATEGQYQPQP

VEGFR-2, sequence (P35968 834-1162 limits assumed): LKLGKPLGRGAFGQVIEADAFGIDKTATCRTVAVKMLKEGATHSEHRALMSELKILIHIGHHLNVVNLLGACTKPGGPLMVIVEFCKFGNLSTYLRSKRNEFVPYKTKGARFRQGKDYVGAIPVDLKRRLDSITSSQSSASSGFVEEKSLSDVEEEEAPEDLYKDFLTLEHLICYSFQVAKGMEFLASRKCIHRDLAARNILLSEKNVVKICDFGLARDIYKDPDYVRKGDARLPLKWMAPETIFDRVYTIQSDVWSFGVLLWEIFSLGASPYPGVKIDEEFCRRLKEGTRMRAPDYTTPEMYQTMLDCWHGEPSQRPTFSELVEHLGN
cSrc, sequence (P12931 whole entry): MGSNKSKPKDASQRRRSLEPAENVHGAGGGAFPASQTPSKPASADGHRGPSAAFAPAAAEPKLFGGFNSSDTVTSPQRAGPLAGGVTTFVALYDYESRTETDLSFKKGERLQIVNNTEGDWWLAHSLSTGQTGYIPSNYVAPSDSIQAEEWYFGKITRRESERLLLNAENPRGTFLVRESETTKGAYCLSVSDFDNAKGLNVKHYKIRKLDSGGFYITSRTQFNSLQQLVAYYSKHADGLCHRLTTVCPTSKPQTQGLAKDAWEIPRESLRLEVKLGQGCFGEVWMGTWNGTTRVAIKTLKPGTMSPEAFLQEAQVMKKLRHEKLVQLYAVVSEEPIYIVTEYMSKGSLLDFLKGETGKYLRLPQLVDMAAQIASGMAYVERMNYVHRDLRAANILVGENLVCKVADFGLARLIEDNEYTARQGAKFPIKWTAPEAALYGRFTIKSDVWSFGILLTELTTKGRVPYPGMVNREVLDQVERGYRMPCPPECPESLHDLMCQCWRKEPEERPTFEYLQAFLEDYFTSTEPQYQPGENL
T1 sequence (P16788 whole entry): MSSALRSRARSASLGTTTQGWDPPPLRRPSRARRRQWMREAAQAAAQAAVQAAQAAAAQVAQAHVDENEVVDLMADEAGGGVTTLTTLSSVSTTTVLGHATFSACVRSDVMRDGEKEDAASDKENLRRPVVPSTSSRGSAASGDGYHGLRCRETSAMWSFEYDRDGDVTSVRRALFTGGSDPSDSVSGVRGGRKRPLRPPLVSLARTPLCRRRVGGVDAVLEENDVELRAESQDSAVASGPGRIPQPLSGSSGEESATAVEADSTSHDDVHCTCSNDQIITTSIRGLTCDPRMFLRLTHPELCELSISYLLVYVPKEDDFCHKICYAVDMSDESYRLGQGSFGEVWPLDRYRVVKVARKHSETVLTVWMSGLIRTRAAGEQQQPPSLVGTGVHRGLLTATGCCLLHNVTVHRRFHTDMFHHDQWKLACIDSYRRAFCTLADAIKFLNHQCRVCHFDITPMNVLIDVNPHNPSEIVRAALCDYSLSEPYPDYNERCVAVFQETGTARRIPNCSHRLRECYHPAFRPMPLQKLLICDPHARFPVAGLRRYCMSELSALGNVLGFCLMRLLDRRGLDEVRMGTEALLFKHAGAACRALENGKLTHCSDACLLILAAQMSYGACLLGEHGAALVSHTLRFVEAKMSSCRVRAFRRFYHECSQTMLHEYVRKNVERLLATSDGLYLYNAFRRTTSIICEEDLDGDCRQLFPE

IC50 (CDK2)	Structure (SMILES)	IC50 [1]	IC50 (UL97)	IC50 (MES/SA cells)	IC50 (VEGFR-2)	IC50 (cSrc)	IC50 (Lck)
1 to 10 nM	COC(=O)c1ccc2c(c1)/C(=C/Nc1ccc(S(N)(=O)=O)cc1)C(=O)N2 [Example 27]	1100 to 5000 nM					
	NS(=O)(=O)c1ccc(NN=C2C(=O)Nc3ccc(-c4cnco4)cc32)cc1 [Example 36]		11 to 50 nM	100 to 500 nM	> 100 nM	> 100 nM	> 100 nM
